From patent US9802907B2, “2-aryl selenazole compound and pharmaceutical composition thereof” (JIANGSU ATOM BIOSCIENCE AND PHARMACEUTICAL CO., LTD., priority 2012, dated 2017) come the findings set out here.

pIC50: −log10 of the molar value. Some results are limits rather than exact numbers.

This assay deals with xanthine oxidase (Bos taurus (Bovine), UniProt P80457). The settings on record: read-out: Xanthine Oxidase Inhibition Activity (IC50); xanthine oxidase sourced from milk, hypoxanthine substrate, 0.1 M Tris-HCl pH 7.5, 30° C.
Chain of xanthine oxidase (P80457 whole entry): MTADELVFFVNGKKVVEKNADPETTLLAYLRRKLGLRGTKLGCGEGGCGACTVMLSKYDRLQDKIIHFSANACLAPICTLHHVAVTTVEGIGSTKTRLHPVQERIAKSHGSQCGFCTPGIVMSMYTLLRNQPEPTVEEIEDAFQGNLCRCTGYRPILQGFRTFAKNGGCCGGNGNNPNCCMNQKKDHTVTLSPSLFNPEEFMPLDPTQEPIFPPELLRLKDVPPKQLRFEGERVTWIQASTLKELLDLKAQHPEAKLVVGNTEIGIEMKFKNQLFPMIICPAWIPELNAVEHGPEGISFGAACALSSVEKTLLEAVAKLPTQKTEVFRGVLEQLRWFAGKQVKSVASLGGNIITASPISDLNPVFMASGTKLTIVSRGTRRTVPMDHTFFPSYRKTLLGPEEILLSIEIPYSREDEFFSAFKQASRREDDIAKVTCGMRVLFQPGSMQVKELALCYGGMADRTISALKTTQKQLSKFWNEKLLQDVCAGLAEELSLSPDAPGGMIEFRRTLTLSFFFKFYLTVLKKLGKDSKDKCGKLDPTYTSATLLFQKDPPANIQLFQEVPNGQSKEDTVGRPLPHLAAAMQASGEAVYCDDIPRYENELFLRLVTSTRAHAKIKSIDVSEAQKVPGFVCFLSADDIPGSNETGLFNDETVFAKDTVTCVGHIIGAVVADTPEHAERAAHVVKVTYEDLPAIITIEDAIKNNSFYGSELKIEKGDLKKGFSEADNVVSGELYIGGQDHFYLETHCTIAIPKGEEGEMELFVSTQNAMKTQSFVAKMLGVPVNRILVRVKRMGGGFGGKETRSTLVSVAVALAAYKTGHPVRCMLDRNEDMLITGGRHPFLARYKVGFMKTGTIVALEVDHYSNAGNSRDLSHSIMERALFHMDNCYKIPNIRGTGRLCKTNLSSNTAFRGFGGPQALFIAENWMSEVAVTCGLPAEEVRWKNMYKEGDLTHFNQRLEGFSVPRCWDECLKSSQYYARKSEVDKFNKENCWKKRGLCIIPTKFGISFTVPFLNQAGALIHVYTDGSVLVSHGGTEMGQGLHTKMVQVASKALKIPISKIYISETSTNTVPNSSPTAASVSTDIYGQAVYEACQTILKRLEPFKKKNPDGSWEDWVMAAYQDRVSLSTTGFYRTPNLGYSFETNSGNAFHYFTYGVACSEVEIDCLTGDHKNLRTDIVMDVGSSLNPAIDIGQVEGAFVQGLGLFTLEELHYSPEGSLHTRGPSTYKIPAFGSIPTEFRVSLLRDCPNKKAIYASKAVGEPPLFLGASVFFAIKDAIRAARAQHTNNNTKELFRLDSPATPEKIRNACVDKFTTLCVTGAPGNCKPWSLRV

Description: The inhibition of the activity of xanthine oxidase (XO) is tested through a coupled enzymatic reaction of xanthine oxidase, horseradish peroxidase (HRP) and a substrate thereof. First, xanthine oxidase oxidizes hypoxanthine to produce xanthine and hydrogen peroxide, and further oxidizes xanthine to produce uric acid and hydrogen peroxide. […] The fluorescence intensity of resorufin is determined by using a fluorescence microplate, which is in direct proportion to the activity of xanthine oxidase.
A certain amount of a test compound and a control compound, febuxostat (by Beijing Lianben Pharm-chemicals Tech. Co., Ltd.) were dissolved in DMSO (by Sinopharm Chemical Reagent Co., Ltd.). A 2.5-fold serial dilution of the test compound was diluted with DMSO in a 96-well polypropylene reaction plate (by Greiner Bio One), so as to obtain a 200-fold dilution. The solution was further diluted in ultrapure water to obtain a 3-fold serial dilution. […]
9 μL reaction solution A and 9 μL 3-fold serial dilution of the test compound were mixed in a 96-well test plate (by Greiner Bio One), placed on a flat plate type oscillator, and mixed at 30° C. for 30 min at 100 rpm. […] The fluorescence intensity at 530 nm exciting light and 590 nm emitted light was determined by using a fluorescence microplate (Perkin Elmer Vitor X4).

For “2-[3-bromo-4-(aniline formyl)-phenyl]-4-methyl-selenazole-5-carboxylic acid [Compound 67]”, the pIC50 (commonly the IC50 on a negative log10 scale, so that one unit is a factor of ten) is less than 7.00.
